According to US20240336556A1, “R-KETAMINE SALTS AND METHODS OF USE THEREOF” (Perception Neuroscience, Inc., priority 2021, published 2024):
Values after ≈ are worked out from the molar mass of the structure shown. Where two headings read alike, the source gives them in different places.

Tests used:
[1] = Storage in a closed vial at ambient conditions, reanalysis by PXRD; type: physicochemical
Experimental: Stoe Stadi P equipped with a Mythen1K Detector; Cu-Kα1 radiation; standard measurement conditions: transmission; 40 kV and 40 mA tube power; curved Ge monochromator; 0.02°2θ step size, 48 s step time, 1.5-50.5°2θ scanning range; detector mode: step scan; 1 °2θ detector step; standard sample preparation: 10 to 20 mg sample was placed between two acetate foils; sample holder: Stoe transmission sample holder; the sample was rotated during the measurement. All sample preparation and measurement was done in an ambient air atmosphere.

[2] = Dynamic vapor sorption (DVS) and classification of hygroscopicity; type: physicochemical; conditions: for reversibility of water sorption: under the test conditions; for solid form of the sample after DVS: PXRD or FT-Raman on solid recovered after the DVS test
Experimental: DVS measurements were performed with an SPS11-100n “Sorptions Prüfsystem” from ProUmid (formerly “Projekt Messtechnik”), August-Nagel-Str. 23, 89079 Ulm (Germany). About 5-20 mg of sample were put into an aluminum sample pan. Humidity change rates of […] were used. The applied measurement program is described as follows:
The sample was placed on an aluminum or platinum holder on top of a microbalance and allowed to equilibrate at 50% RH before starting the pre-defined humidity programs: • (1) 2 h at 50% RH • (2) 50→0% RH (5%/h); 5 h at 0% RH • (3) 0→95% RH (5%/h); 5 h at 95% RH • (4) 95→0% RH (5%/h); 5 h at 0% RH • (5) 0→95% RH (5%/h); 5 h at 95% RH • (6) 95→50% RH (5%/h); 2 h at 50% RH
The hygroscopicity was classified based on the mass gain at 85% RH relative to the initial mass as follows: deliquescent (sufficient water adsorbed to form a liquid), very hygroscopic (mass increase of ≥15%), hygroscopic (mass increase <15% but ≥2%), slightly hygroscopic (mass increase <2% but ≥0.2%), or non-hygroscopic (mass increase <0.2%).

[3] = water, at 23° C.
[4] = Approximate solubility determination (small aliquots of solvent added to ~10 mg of solid, ambient conditions); type: physicochemical; conditions: thermodynamic from solid, approximation
Experimental: Approximate solubilities were determined for the R-ketamine free base. […] These values are only approximations.

[5] = Approximate solubility in 20% (w/w) aqueous (2-Hydroxypropyl)-Beta-cyclodextrin solution and in 20% (w/w) cyclodextrin in buffer pH 7, with pH of the solutions; conditions: for Approximate Solubility: ambient conditions, visual estimate
Experimental: These values were determined by adding small aliquots of solvent or solvent mixture to ˜10 mg of solid and shaking/sonicating for a short period of time at ambient conditions. The solubilities were estimated by visual observations. These values are only approximations. Table 20 summarized the obtained solubility values, and the pH of the resulting solutions.

[6] = HPLC precise solubility determination of R-ketamine salts in water at 25° C., with pH of the saturated solution; conditions: for Initial pH / pH after 24 hours: saturated solution in water, pH determined at 24° C.; for solubility / solubility in water: 25° C.; for solubility: equilibrated one day, HPLC of the saturated solution, values marked * may be underestimated; for solubility in water: one day equilibration, HPLC
Experimental: 50 mg of R-ketamine saccharin salt was suspended in 0.5 mL of water, and the suspension was equilibrated (700 rpm) at 25° C. for one day. 10 to 15 mg of R-ketamine fumarate salt and R-ketamine oxalate salt were also equilibrated in 0.5 mL of water at 25° C. for one day.

[7] = Precise solubility tests of R-ketamine fumarate salt Form A in aqueous media at adjusted pH (HPLC); conditions: for solubility: aqueous, equilibrated one day, HPLC
[8] = DVS, above 70% relative humidity
[9] = obtained solution in 20% (w/w) aqueous cyclodextrin, measured at 24° C.
[10] = obtained solution in 20% (w/w) cyclodextrin in buffer pH 7, measured at 24° C.

Q: With `CN[C@@]1(c2ccccc2Cl)CCCCC1=O.O=C(O)C(O)C(O)C(=O)O` [R-ketamine D-tartrate salt Form A] as the molecule, how does the “solid form after storage (PXRD)” value ([1]; 13 months, ambient conditions) read?
A: corresponding to R-ketamine D-tartrate salt Form A

Q: What about the additional water uptake [2, 8] of the same molecule?
A: about 3%

Q: And the “reversibility of water sorption” value ([2]; DVS)?
A: irreversible

Q: What does the source list for `CN[C@@]1(c2ccccc2Cl)CCCCC1=O.O=C(O)C(O)C(O)C(=O)O` [R-ketamine D-tartrate salt Form B]?
A: solid form after storage (PXRD) ([1]; 12 months, ambient conditions): corresponding to R-ketamine D-tartrate salt Form B; water content reached [2, 8]: about 8.5%; reversibility of water sorption ([2]; DVS): irreversible

Q: For `CN[C@@]1(c2ccccc2Cl)CCCCC1=O.O=C(O)C(O)C(O)C(=O)O` [R-ketamine D-tartrate salt Form C], which “pH of the suspension” value ([3]; after 24 hours of stirring) is on record?
A: 3.42

Q: And the “pH of the suspension” value ([3]; after one hour)?
A: 3.48

Q: What about the water content reached [2, 8] of the same molecule?
A: about 8.3%

Q: What about the “reversibility of water sorption” value ([2]; DVS) of the same molecule?
A: irreversible

Q: For `CN[C@@]1(c2ccccc2Cl)CCCCC1=O.O=C(O)C(O)C(O)C(=O)O` [R-ketamine D-tartrate salt Form D], which additional water absorbed ([2]; DVS, at high relative humidity) is on record?
A: About 0.4%

Q: Which results are given for `CN[C@@]1(c2ccccc2Cl)CCCCC1=O` [R-ketamine free base, (2R)-2-(2-chlorophenyl)-2-(methylamino)cyclohexan-1-one]?
A: solubility ([4]; aqueous with cosolvent or surfactant or cyclodextrin, 20% (2-hydroxypropyl)-beta-cyclodextrin in water): 1.4 to 1.7 mg/mL (≈ 5.89 to 7.15 mM); solubility ([4]; organic solvent or mixture, 1-propanol): 60 to 79 mg/mL (≈ 252 to 332 mM); solubility ([4]; organic solvent or mixture, 2-propanol): 37 to 44 mg/mL (≈ 156 to 185 mM); solubility ([4]; organic solvent or mixture, Acetone): 111 to 222 mg/mL (≈ 467 to 934 mM); solubility ([4]; organic solvent or mixture, Acetonitrile): 89 to 133 mg/mL (≈ 374 to 559 mM); solubility ([4]; organic solvent or mixture, Ethanol): 62 to 83 mg/mL (≈ 261 to 349 mM); solubility ([4]; organic solvent or mixture, Ethyl acetate): 115 to 230 mg/mL (≈ 484 to 967 mM); solubility ([4]; organic solvent or mixture, Heptane): 5 to 9 mg/mL (≈ 21 to 37.9 mM); solubility ([4]; organic solvent or mixture, Methanol): 120 to 240 mg/mL (≈ 505 to 1010 mM); solubility ([4]; organic solvent or mixture, THF): > 288 mg/mL; solubility ([4]; Water): < 1 mg/mL; solubility ([5]; 20% (w/w) (2-hydroxypropyl)-beta-cyclodextrin in buffer pH 7, pH 7, aqueous with cosolvent or surfactant or cyclodextrin, thermodynamic from solid): 2 to 2.5 mg/mL (≈ 8.41 to 10.5 mM); solubility ([5]; aqueous with cosolvent or surfactant or cyclodextrin, thermodynamic from solid): 1.5 to 1.7 mg/mL (≈ 6.31 to 7.15 mM); pH [5, 9]: 8.5; pH [5, 10]: 7.1

Q: Which “Initial pH” value ([6]; after 3 h) does the source give for `CN[C@@]1(c2ccccc2Cl)CCCCC1=O.CN[C@@]1(c2ccccc2Cl)CCCCC1=O.O=C(O)/C=C/C(=O)O` [R-ketamine fumarate salt Form A] here?
A: 4.1 (after 3 h)

Q: And the “pH after 24 hours” value [6]?
A: 4.1

Q: What about the solubility ([6]; water) of the same molecule?
A: 17.7* mg/mL

Q: What about the solubility in water ([6]; water) of the same molecule?
A: higher than the solubility of the R-ketamine saccharin salt

Q: What about the “reversibility of water sorption” value ([2]; DVS) of the same molecule?
A: lost all its water when the humidity is scanned back to 0% r.h.

Q: What about the “solid form of the sample after DVS” value [2] of the same molecule?
A: no change in the crystalline form was observed

Q: What about the solubility ([7]; pH 5.23, r.t.) of the same molecule?
A: 304 mg/mL

Q: What about the solubility ([7]; pH 6.14, r.t.) of the same molecule?
A: 15.1 mg/mL

Q: What about the solubility ([7]; pH 7.21, r.t.) of the same molecule?
A: 1.76 mg/mL

Q: What about the “pH on dissolution in pure water” value ([7]; pure water, from approximate solubility tests) of the same molecule?
A: about 5.7

Q: What about the “dependence of aqueous solubility on pH” value ([7]; water adjusted to pH 5, 6, 7, one day at 25° C.) of the same molecule?
A: solubility rapidly deceases by increasing pH

Q: For `CN[C@@]1(c2ccccc2Cl)CCCCC1=O.O=C(O)/C=C/C(=O)O` [R-ketamine fumarate salt Form B], which “solid form after storage (PXRD)” value ([1]; 11 months, ambient condition) is on record?
A: a mixture of the R-ketamine fumarate salt Form A and B (about 1:1)

Q: Which solubility ([5]; aqueous 20% (2-hydroxypropyl)-beta-cyclodextrin solution) does the source give for `CNC1(c2ccccc2Cl)CCCCC1=O.Cl` (centres unmarked) [R-ketamine hydrochloride salt, reference compound] here?
A: *The solubility of the HCl R-ketamine salt was over 100 mg/mL in aqueous 20% (2-hydroxypropyl)-beta-cyclodextrin solution.

Q: For `CN[C@@]1(c2ccccc2Cl)CCCCC1=O.O=C(O)C(=O)O` [R-ketamine oxalate salt], which “Initial pH” value ([6]; after 3 h) is on record?
A: 5.6 (after 3 h)

Q: And the “pH after 24 hours” value [6]?
A: 5.7

Q: What about the solubility ([6]; water) of the same molecule?
A: 19.2* mg/mL

Q: What about the solubility in water ([6]; water) of the same molecule?
A: higher than the solubility of the R-ketamine saccharin salt

Q: What about the “pH of the saturated solution” value ([6]; water, after one day stirring, pH measured at 24° C.) of the same molecule?
A: 5.7

Q: And the hygroscopicity class ([2]; DVS)?
A: very hygroscopic (very hygroscopic (mass increase of ≥15%))

Q: What about the “solid form of the sample after DVS” value [2] of the same molecule?
A: dramatically loss of crystallinity was observed

Q: What does the source list for `CN[C@@]1(c2ccccc2Cl)CCCCC1=O.O=C1NS(=O)(=O)c2ccccc21` [R-ketamine saccharin salt]?
A: Approximate Solubility ([5]; 20% (w/w) aqueous cyclodextrin): 28~37 mg/mL; Approximate Solubility ([5]; 20% (w/w) cyclodextrin in buffer pH 7 solution): 26~35 mg/mL; pH [5, 9]: 5; pH [5, 10]: 6.3; Initial pH ([6]; after 1 h): 4.2 (after 1 h); pH after 24 hours [6]: 4.0; solubility ([6]; water): 6.64 mg/mL; solubility in water ([6]; water): 6.6 mg/mL; hygroscopicity class ([2]; DVS): non-hygroscopic (non-hygroscopic (mass increase <0.2%)); solid form of the sample after DVS [2]: no change in the solid form was observed
